Measurements taken from PMC11513923, “Discovery of ZLC491 as a Potent, Selective, and Orally Bioavailable CDK12/13 PROTAC Degrader” (Journal of Medicinal Chemistry, 2024).

System: CDK12/13
Experiment: Immunoblotting of CDK12/13 in MDA-MB-231 cells (time course, negative control, series comparison)
Assay type: cell-based, human
Settings: 1 μM
Description: To further characterize the compound, we determined the half-degradation concentration (DC50) values of ZLC491 in MDA-MB-231 cells. […] We also treated MDA-MB-231 cells with 1 μM ZLC491 at various time points.
(A) Immunoblotting of CDK12 and CDK13 in MDA-MB-231 cells treated with increasing concentrations of ZLC491 for 15 h (left). Percent remaining CDK12 and CDK13 proteins were plotted for DC50 determination (right). Protein levels were quantified using ImageJ and normalized to corresponding α-tubulin, then plotted using Graphpad Prism 8.0. The data were representative of three independent experiments; (B) immunoblotting of CDK12 and CDK13 proteins in MDA-MB-231 cells treated with ZLC491 for various time points; immunoblotting of CDK12 and CDK13 in HCC38 (C) and MDA-MB-436 (D) cells treated with increasing concentrations of ZLC491 for 15 h. α-Tubulin was used as a loading control. TEXT PRINTED IN THE PICTURE: (A) ZLC491: MDA-MB-231: CDK12 DC50 = 0.032μM; MDA-MB-231: CDK13 DC50 = 0.028μM DOUBTS OF THE COPYIST ABOUT THIS PICTURE: ZLC491, CDK12 DC50: 0.032 read from small print, the digits 3 and 2 are uncertain / ZLC491, CDK13 DC50: 0.028 read from small print, the last digit may be 8, 6 or 3
Figure 4 ZLC491 induced CDK12/13 degradation in a CRBN- and proteasome-dependent fashion. […]

N#Cc1ccc(N[C@H]2CC[C@H](N(C(=O)NCc3ccccc3)c3ccc(N4CCN(C5CCN(c6cc7c(cc6F)C(=O)N(C6CCC(=O)NC6=O)C7=O)CC5)CC4)cc3)CC2)nc1 (stereo partly shown) [ZLC491, 3-Benzyl-1-((1r,4r)-4-((5-cyanopyridin-2-yl)amino)cyclohexyl)-1-(4-(4-(1-(2-(2,6-dioxopiperidin-3-yl)-6-fluoro-1,3-dioxoisoindolin-5-yl)piperidin-4-yl)piperazin-1-yl)phenyl)urea]
time at which significant reduction of CDK12/13 is observed: ≤ 4 h
